Values of other authors as cited in patent US20240165053A1, “Topical Medicament for Use in Treatment of Anorectal Inflammation” (priority 2022, published 2024).

Test system: swollen hemorrhoids

SMILES: OC[C@H]1O[C@@](CO)(O[C@H]2O[C@H](CO)[C@@H](O)[C@H](O)[C@H]2O)[C@@H](O)[C@@H]1O [granulated sugar, Sucrose]
- time of application after which the difference is noticeable with the naked eye (topical application on prolapsed hemorrhoids): 10 min
- edema reduction of swollen hemorrhoids (topical application, medical studies): immediate edema reduction
